Drawing on US7851474B2, “Dipiperazinyl ketones and related analogues” (Neurogen Corporation, priority 2005, dated 2010), this text covers Ki for 28 compounds.

T1 sequence (Q9Y5N1 with tags, fused parts or gaps E19D): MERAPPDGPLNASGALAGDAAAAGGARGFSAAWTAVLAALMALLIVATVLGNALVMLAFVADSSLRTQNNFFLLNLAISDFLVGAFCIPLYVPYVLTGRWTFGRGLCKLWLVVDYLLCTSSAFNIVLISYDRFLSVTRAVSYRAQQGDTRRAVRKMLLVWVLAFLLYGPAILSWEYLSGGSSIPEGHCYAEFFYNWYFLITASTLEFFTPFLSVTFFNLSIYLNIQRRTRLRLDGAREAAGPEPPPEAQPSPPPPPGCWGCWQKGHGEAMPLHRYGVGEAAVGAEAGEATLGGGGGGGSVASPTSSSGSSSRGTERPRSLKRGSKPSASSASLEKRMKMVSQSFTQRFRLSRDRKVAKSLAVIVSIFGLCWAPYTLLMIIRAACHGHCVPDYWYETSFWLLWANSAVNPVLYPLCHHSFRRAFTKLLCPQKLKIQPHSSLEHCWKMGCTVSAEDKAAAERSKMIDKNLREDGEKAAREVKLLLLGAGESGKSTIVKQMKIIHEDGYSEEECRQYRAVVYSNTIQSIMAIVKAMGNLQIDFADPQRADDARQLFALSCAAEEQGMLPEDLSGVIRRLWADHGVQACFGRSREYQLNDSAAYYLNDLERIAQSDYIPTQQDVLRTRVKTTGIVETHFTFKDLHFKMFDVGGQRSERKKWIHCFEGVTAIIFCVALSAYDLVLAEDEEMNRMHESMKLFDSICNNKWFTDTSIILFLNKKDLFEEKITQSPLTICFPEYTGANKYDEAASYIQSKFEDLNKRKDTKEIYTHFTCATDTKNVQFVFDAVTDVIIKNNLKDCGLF

The first assay concerns the target T1, chimeric human H3 receptor (Homo sapiens, UniProt Q9Y5N1, E19D).
T1 construct: made in house; host or cells: Sf9 insect cells (baculovirus infection); P2 membrane preparation
Kind of assay: Chimeric human H3 receptor GTP binding assay (agonist-stimulated GTP-gamma35S binding, Example 7). Type of assay: biochemical.
Conditions: not given
The method, boiled down: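 Sf9 membranes co-expressing the chimeric receptor and heterotrimeric G-protein subunits, 35 μg protein per tube, in pH 7.4 Tris buffer with 10 μM GDP. Test compounds at 10^−10 to 10^−6 M with 1 μM histamine, 60 min at room temperature. Filter-bound GTP-gamma^35S read by scintillation; IC50 from non-linear regression of dose-response curves.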
In general terms: Binding of GTPγS marks nucleotide exchange on a G protein.
Broadly, the Ki is a dissociation constant, usually derived from enzyme kinetics or from competition with a known ligand. Regarding `CCC(C)N1CCN(C(=O)CN2CCN(c3cccc(Cl)c3)CC2)CC1` (stereo not shown) [Compound 873, 1-sec-butyl-4-{[4-(3-chlorophenyl)piperazin-1-yl]acetyl}piperazine], the inhibition constant Ki is under 1000 nM.

The assay is the same for the next values; noted with them: Table II "Ki", symbol "*": Ki in the assay of Example 7; read-out: Ki.
Turning to `CCC(C)N1CCN(C(=O)CN2CCN(c3ccc(OC)c(OC)c3)CC2)CC1` (stereo not shown) [Compound 870, 1-sec-butyl-4-{[4-(3,4-dimethoxyphenyl)piperazin-1-yl]acetyl}piperazine], the inhibition constant Ki is under 1000 nM.

In the case of `CCC(C)N1CCN(C(=O)CN2CCN(c3ccc(C)c(C)c3)CC2)CC1` (stereo not shown) [Compound 871, 1-sec-butyl-4-{[4-(3,4-dimethylphenyl)piperazin-1-yl]acetyl}piperazine], the Ki was under 1000 nM.

Take `CCC(C)N1CCN(C(=O)CN2CCN(c3cc(Cl)cc(Cl)c3)CC2)CC1` (stereo not shown) [Compound 872, 1-sec-butyl-4-{[4-(3,5-dichlorophenyl)piperazin-1-yl]acetyl}piperazine]: the inhibitory constant (Ki) was under 1000 nM.

Consider `CCC(C)N1CCN(C(=O)CN2CCN(c3cccc(F)c3)CC2)CC1` (stereo not shown) [Compound 874, 1-sec-butyl-4-{[4-(3-fluorophenyl)piperazin-1-yl]acetyl}piperazine], for which the inhibition constant (Ki) is under 1000 nM.

As for `CCC(C)N1CCN(C(=O)CN2CCN(c3cccc(OC)c3)CC2)CC1` (stereo not shown) [Compound 875, 1-sec-butyl-4-{[4-(3-methoxyphenyl)piperazin-1-yl]acetyl}piperazine], the Ki is under 1000 nM.

Regarding `CCC(C)N1CCN(C(=O)CN2CCN(c3cccc(C)c3)CC2)CC1` (stereo not shown) [Compound 876, 1-sec-butyl-4-{[4-(3-methylphenyl)piperazin-1-yl]acetyl}piperazine], the Ki is under 1000 nM.

On to `CCC(C)N1CCN(C(=O)CN2CCN(c3ccc(Cl)c(OC)c3)CC2)CC1` (stereo not shown) [Compound 877, 1-sec-butyl-4-{[4-(4-chloro-3-methoxyphenyl)piperazin-1-yl]acetyl}piperazine], for which the Ki was under 1000 nM.

Take `CCC(C)N1CCN(C(=O)CN2CCN(c3ccc(Cl)c(C)c3)CC2)CC1` (stereo not shown) [Compound 878, 1-sec-butyl-4-{[4-(4-chloro-3-methylphenyl)piperazin-1-yl]acetyl}piperazine]: the Ki is under 1000 nM.

With `CCC(C)N1CCN(C(=O)CN2CCN(c3ccc(Cl)cc3)CC2)CC1` (stereo not shown) [Compound 879, 1-sec-butyl-4-{[4-(4-chlorophenyl)piperazin-1-yl]acetyl}piperazine], the Ki was under 1000 nM.

Turning to `CCC(C)N1CCN(C(=O)CN2CCN(c3ccc(F)cc3)CC2)CC1` (stereo not shown) [Compound 880, 1-sec-butyl-4-{[4-(4-fluorophenyl)piperazin-1-yl]acetyl}piperazine], the inhibition constant (Ki) is under 1000 nM.

In the case of `CCC(C)N1CCN(C(=O)CN2CCN(c3ccc(OC)cc3)CC2)CC1` (stereo not shown) [Compound 881, 1-sec-butyl-4-{[4-(4-methoxyphenyl)piperazin-1-yl]acetyl}piperazine], the Ki was under 1000 nM.

`CCC(C)N1CCN(C(=O)CN2CCN(c3ccc(C)cc3)CC2)CC1` (stereo not shown) [Compound 882, 1-sec-butyl-4-{[4-(4-methylphenyl)piperazin-1-yl]acetyl}piperazine]: the inhibition constant (Ki) was under 1000 nM.

As to `CCC(C)N1CCN(C(=O)CN2CCN(c3ccc([N+](=O)[O-])cc3)CC2)CC1` (stereo not shown) [Compound 883, 1-sec-butyl-4-{[4-(4-nitrophenyl)piperazin-1-yl]acetyl}piperazine], the inhibition constant Ki is under 1000 nM.

Turning to `CCC(C)N1CCN(C(=O)CN2CCN(c3cc(Cl)ccc3OC)CC2)CC1` (stereo not shown) [Compound 884, 1-sec-butyl-4-{[4-(5-chloro-2-methoxyphenyl)piperazin-1-yl]acetyl}piperazine], the Ki is under 1000 nM.

Consider `CCC(C)N1CCN(C(=O)CN2CCN(c3cc(Cl)ccc3C)CC2)CC1` (stereo not shown) [Compound 885, 1-sec-butyl-4-{[4-(5-chloro-2-methylphenyl)piperazin-1-yl]acetyl}piperazine], for which the Ki was under 1000 nM.

As to `O=C(CN1CCN(c2cnc(-c3ccc4c(c3)OCO4)cn2)CC1)N1CCN(C2CCC2)CC1` [Compound 896, 2-(1,3-benzodioxol-5-yl)-5-{4-[2-(4-cyclobutylpiperazin-1-yl)-2-oxoethyl]piperazin-1-yl}pyrazine], the inhibition constant (Ki) was under 1000 nM.

With `Cc1ccc(F)c(-c2cnc(N3CCN(CC(=O)N4CCN(C5CCC5)CC4)CC3)cn2)c1Cl` [Compound 897, 2-(2-chloro-6-fluoro-3-methylphenyl)-5-{4-[2-(4-cyclobutylpiperazin-1-yl)-2-oxoethyl]piperazin-1-yl}pyrazine], the inhibition constant (Ki) was under 1000 nM.

For `O=C(CN1CCN(c2cnc(-c3ccccc3Cl)cn2)CC1)N1CCN(C2CCC2)CC1` [Compound 898, 2-(2-chlorophenyl)-5-{4-[2-(4-cyclobutylpiperazin-1-yl)-2-oxoethyl]piperazin-1-yl}pyrazine], the Ki is under 1000 nM.

Turning to `O=C(CN1CCN(c2cnc(-c3ccc(F)c(Cl)c3)cn2)CC1)N1CCN(C2CCC2)CC1` [Compound 899, 2-(3-chloro-4-fluorophenyl)-5-{4-[2-(4-cyclobutylpiperazin-1-yl)-2-oxoethyl)piperazin-1-yl}pyrazine], the Ki was under 1000 nM.

On to `O=C(CN1CCN(c2cnc(-c3cccc(Cl)c3)cn2)CC1)N1CCN(C2CCC2)CC1` [Compound 900, 2-(3-chlorophenyl)-5-{4-[2-(4-cyclobutylpiperazin-1-yl)-2-oxoethyl]piperazin-1-yl}pyrazine], for which the Ki was under 1000 nM.

Turning to `CCCCc1ccc(-c2cnc(N3CCN(CC(=O)N4CCN(C5CCC5)CC4)CC3)cn2)cc1` [Compound 901, 2-(4-butylphenyl)-5-{4-[2-(4-cyclobutylpiperazin-1-yl)-2-oxoethyl]piperazin-1-yl}pyrazine], the inhibition constant Ki was under 1000 nM.

As for `O=C(CN1CCN(c2cnc(-c3ccc(Cl)cc3F)cn2)CC1)N1CCN(C2CCC2)CC1` [Compound 902, 2-(4-chloro-2-fluorophenyl)-5-{4-[2-(4-cyclobutylpiperazin-1-yl)-2-oxoethyl]piperazin-1-yl}pyrazine], the Ki was under 1000 nM.

On to `O=C(CN1CCN(c2cnc(-c3ccc(Cl)c(F)c3)cn2)CC1)N1CCN(C2CCC2)CC1` [Compound 903, 2-(4-chloro-3-fluorophenyl)-5-{4-[2-(4-cyclobutylpiperazin-1-yl)-2-oxoethyl]piperazin-1-yl}pyrazine], for which the inhibitory constant (Ki) is under 1000 nM.

In the case of `O=C(CN1CCN(c2cnc(-c3ccc(Cl)cc3)cn2)CC1)N1CCN(C2CCC2)CC1` [Compound 904, 2-(4-chlorophenyl)-5-{4-[2-(4-cyclobutylpiperazin-1-yl)-2-oxoethyl]piperazin-1-yl}pyrazine], the inhibition constant (Ki) was under 1000 nM.

As for `O=C1CCc2cc(N3CCC(C(=O)OCC(=O)N4CCN(C5CCC5)CC4)CC3)ccc21` [Compound 905, 2-(4-cyclobutylpiperazin-1-yl)-2-oxoethyl 1-(1-oxo-2,3-dihydro-1H-inden-5-yl)piperidine-4-carboxylate], the Ki was under 1000 nM.

As to `O=C(OCC(=O)N1CCN(C2CCC2)CC1)N1C=CC2(CC1)c1ccccc1C(=O)N2Cc1ccccc1` (stereo not shown) [Compound 906, 2-(4-cyclobutylpiperazin-1-yl)-2-oxoethyl 2-benzyl-3-oxo-2,2′,3,3′-tetrahydro-1′H-spiro[isoindole-1,4′-pyridine]-1′-carboxylate], the Ki was under 1000 nM.

Take `O=C1CCc2cc(N3CCC(C(=O)OCC(=O)N4CCN(C5CCCC5)CC4)CC3)ccc21` [Compound 907, 2-(4-cyclopentylpiperazin-1-yl)-2-oxoethyl 1-(1-oxo-2,3-dihydro-1H-inden-5-yl)piperidine-4-carboxylate]: the inhibitory constant (Ki) is under 1000 nM.
